{
  "source": "ChEMBL document CHEMBL5390201",
  "about": "“The Natural Alkaloid (-)-N-Hydroxyapiosporamide Suppresses Colorectal Tumor Progression as an NF-κB Pathway Inhibitor by Targeting the TAK1-TRAF6 Complex” (J Nat Prod, 2023)",
  "key": {"HT-29 [1]": {"test_system": "HT-29", "assay": "Induction of apoptosis in human HT-29 cells assessed as late apoptotic cells at 5 uM preincubated with Z-VAD-FMK for 1 hr followed by compound addition and measured after 24 hrs by Annexin V-FITC/PI staining based flow cytometric analysis (reference value: 7.01 %)", "assay_type": "functional"}, "HCT-116 [2]": {"test_system": "HCT-116", "assay": "Induction of cell cycle arrest in human HCT-116 cells assessed as accumulation of cells at G2/M phase at 1 uM by RNase/PI staining based flow cytometry analysis (reference value: 23.15 %)", "assay_type": "functional"}, "[3]": {"assay": "Toxicity in athymic nude BALB/c mouse assessed as change in serum ALT level at 5 to 15 mg/kg, ip administered every other day and measured after 14 days", "assay_type": "organism-based", "settings": "in vivo, 336 h, dose 5-15 mg/kg, time 14 day"}, "[4]": {"assay": "Toxicity in athymic nude BALB/c mouse assessed as change in serum AST level at 5 to 15 mg/kg, ip administered every other day and measured after 14 days", "assay_type": "organism-based", "settings": "in vivo, 336 h, dose 5-15 mg/kg, time 14 day"}, "HT-29 [5]": {"test_system": "HT-29", "assay": "Induction of apoptosis in human HT-29 cells assessed as increase in cleavage of PARP measured for 24 hrs by Western blot analysis", "assay_type": "functional, cell-based", "settings": "dose 0-10 µM"}, "HT-29 [6]": {"test_system": "HT-29", "assay": "Induction of apoptosis in human HT-29 cells assessed as viable cells at 5 uM incubated for 24 hrs by Annexin V-FITC/PI staining based flow cytometric analysis (reference value: 88.3 %)", "assay_type": "functional", "settings": "read-out: Activity"}, "HT-29 [7]": {"test_system": "HT-29", "assay": "Induction of autophagy in human HT-29 cells transfected with GFP-LC3 assessed as increase in LC3 dot puncta at 1 to 10 uM incubated for 24 hrs by fluorescence microscopy", "assay_type": "functional, cell-based", "settings": "dose 1-10 µM"}, "HT-29 [8]": {"test_system": "HT-29", "assay": "Induction of autophagic cell death in human HT-29 cells at 1 to 10 uM pretreated with 3-methyladenine for 1 hr followed by compound addition and measured after 24 hrs by SRB assay", "assay_type": "functional, cell-based", "settings": "dose 1-10 µM"}, "HT-29 [9]": {"test_system": "HT-29", "assay": "Antitumor activity against human HT-29 cells xenografted in athymic nude BALB/c mouse assessed as induction of apoptosis by measuring increase in cleaved PARP expression in tumor at 15 mg/kg, ip administered every other day and measured after 14 days by immunohistochemistry analysis", "assay_type": "functional, organism-based", "settings": "time 14.0 day"}, "HT-29 [10]": {"test_system": "HT-29", "assay": "Induction of cell cycle arrest in human HT-29 cells assessed as decrease in CDK4 protein expression upto 10 uM incubated for 24 hrs by Western blot analysis", "assay_type": "functional, cell-based"}, "HCT-116 [11]": {"test_system": "HCT-116", "assay": "Induction of apoptosis in human HCT-116 cells assessed as inhibition of caspase 3 protein expression measured for 24 hrs by Western blot analysis", "assay_type": "functional, cell-based", "settings": "dose 0-10 µM"}, "HT-29 [12]": {"test_system": "HT-29", "assay": "Induction of apoptosis in human HT-29 cells assessed as viable cells at 10 uM incubated for 24 hrs by Annexin V-FITC/PI staining based flow cytometric analysis (reference value: 93 %)", "assay_type": "functional", "settings": "read-out: Activity"}, "[13]": {"assay": "Toxicity in athymic nude BALB/c mouse xenografted with human HCT-116 cells assessed as reduction in body weight at 5 to 15 mg/kg, ip administered every other day and measured every other day for 16 days", "assay_type": "organism-based", "settings": "in vivo, 384 h, dose 5-15 mg/kg, time 16 day"}, "HCT-116 [14]": {"test_system": "HCT-116", "assay": "Antitumor activity against human HCT-116 cells xenografted in athymic nude BALB/c mouse assessed as reduction in tumor volume at 5 to 15 mg/kg, ip administered every other day and measured every other day for 16 days", "assay_type": "functional, organism-based", "settings": "dose 5-15 mg/kg, time 16.0 day"}, "HT-29 [15]": {"test_system": "HT-29", "assay": "Antitumor activity against human HT-29 cells xenografted in athymic nude BALB/c mouse assessed as induction of autophagy by measuring reduction in p62 expression in tumor at 15 mg/kg, ip administered every other day and measured after 14 days by immunohistochemistry analysis", "assay_type": "functional, organism-based", "settings": "time 14.0 day"}, "HT-29 [16]": {"test_system": "HT-29", "assay": "Antitumor activity against human HT-29 cells xenografted in athymic nude BALB/c mouse assessed as induction of apoptosis by measuring increase in cleaved caspase 3 expression in tumor at 15 mg/kg, ip administered every other day and measured after 14 days by immunohistochemistry analysis", "assay_type": "functional, organism-based", "settings": "time 14.0 day"}, "HT-29 [17]": {"test_system": "HT-29", "assay": "Induction of apoptosis in human HT-29 cells assessed as late apoptotic cells at 0.25 uM incubated for 24 hrs by Annexin V-FITC/PI staining based flow cytometric analysis (reference value: 1.56 %)", "assay_type": "functional"}, "[18]": {"biological_target": "Nuclear factor NF-kappa-B complex (Homo sapiens) (UniProt Q00653+P19838+Q04206)", "sequence (P19838 whole entry, looked up)": "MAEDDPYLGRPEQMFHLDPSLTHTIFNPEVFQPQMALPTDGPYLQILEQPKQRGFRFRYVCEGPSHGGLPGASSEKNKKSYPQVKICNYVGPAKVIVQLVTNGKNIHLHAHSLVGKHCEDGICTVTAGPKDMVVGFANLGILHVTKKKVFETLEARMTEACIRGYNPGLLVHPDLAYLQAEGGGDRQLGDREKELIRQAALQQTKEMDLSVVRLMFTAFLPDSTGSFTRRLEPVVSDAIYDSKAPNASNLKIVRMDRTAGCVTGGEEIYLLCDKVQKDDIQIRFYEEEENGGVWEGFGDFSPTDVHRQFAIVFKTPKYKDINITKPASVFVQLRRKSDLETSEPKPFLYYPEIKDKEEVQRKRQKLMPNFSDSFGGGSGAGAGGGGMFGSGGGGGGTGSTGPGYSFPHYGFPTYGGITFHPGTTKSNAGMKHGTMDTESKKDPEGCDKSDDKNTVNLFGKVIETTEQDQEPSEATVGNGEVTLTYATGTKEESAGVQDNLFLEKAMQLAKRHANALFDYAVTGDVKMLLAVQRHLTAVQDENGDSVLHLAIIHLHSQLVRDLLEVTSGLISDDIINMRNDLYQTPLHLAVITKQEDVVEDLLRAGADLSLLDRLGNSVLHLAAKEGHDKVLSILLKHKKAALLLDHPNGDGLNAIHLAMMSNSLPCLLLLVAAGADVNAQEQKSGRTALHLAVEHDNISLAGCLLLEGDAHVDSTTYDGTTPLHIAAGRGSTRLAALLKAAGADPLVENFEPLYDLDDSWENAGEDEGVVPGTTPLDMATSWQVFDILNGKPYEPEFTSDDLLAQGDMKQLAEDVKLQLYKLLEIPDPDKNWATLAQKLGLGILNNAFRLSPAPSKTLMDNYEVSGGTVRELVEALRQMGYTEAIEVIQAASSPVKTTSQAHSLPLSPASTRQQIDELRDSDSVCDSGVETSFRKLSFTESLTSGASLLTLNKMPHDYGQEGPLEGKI", "sequence (Q00653 whole entry, looked up)": "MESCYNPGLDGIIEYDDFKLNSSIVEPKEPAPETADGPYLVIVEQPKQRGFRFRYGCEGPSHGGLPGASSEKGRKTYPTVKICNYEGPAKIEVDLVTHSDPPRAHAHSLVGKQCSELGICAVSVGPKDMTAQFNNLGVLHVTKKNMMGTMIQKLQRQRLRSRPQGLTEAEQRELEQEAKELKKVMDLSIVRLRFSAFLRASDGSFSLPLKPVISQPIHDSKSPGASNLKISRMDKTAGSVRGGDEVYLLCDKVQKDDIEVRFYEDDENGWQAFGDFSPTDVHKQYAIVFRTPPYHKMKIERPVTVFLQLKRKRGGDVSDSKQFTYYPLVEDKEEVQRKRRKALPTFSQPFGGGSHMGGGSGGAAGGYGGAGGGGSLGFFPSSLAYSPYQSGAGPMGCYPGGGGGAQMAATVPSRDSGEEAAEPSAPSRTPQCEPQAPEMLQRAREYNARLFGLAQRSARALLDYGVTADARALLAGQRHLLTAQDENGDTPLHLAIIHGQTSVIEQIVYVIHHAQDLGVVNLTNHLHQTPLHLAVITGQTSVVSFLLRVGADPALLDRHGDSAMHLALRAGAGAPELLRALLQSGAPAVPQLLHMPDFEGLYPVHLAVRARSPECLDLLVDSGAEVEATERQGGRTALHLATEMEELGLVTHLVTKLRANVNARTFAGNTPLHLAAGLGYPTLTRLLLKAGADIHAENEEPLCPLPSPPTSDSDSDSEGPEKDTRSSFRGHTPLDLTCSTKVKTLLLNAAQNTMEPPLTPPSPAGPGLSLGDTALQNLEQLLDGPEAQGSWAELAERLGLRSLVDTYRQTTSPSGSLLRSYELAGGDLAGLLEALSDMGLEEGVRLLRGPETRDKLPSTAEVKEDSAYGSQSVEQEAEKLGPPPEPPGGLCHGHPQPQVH", "sequence (Q04206 whole entry, looked up)": "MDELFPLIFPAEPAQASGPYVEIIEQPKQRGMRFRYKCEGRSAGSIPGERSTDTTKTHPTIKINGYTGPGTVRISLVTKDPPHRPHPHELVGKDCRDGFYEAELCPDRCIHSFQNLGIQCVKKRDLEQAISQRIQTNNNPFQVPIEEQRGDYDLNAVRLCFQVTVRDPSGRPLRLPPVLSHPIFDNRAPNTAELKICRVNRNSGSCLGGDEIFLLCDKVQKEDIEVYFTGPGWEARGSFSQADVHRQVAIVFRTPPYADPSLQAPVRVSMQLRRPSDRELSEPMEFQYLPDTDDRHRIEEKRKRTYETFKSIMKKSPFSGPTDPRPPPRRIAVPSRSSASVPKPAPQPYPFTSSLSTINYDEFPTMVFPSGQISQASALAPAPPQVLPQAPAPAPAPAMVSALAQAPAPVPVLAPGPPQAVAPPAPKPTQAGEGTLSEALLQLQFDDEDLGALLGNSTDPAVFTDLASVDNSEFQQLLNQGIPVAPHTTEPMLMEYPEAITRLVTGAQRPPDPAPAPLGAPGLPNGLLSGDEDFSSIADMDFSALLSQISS", "assay": "Inhibition of TNF-alpha induced NFkappaB activation in human HCT-116 cells assessed as downregulation of A20 gene expression pretreated for 24 hrs followed by TNFalpha stimulation and measured after 2 hrs by quantitative RT-PCR analysis", "assay_type": "cell-based", "settings": "dose 1-10 µM, time 26.0 hrs"}, "[19]": {"assay": "Toxicity in athymic nude BALB/c mouse xenografted with human HCT-116 cells assessed as pathological changes in kidney at 5 to 15 mg/kg, ip administered every other day and measured after 14 days by hematoxylin and eosin staining-based microscopic analysis", "assay_type": "organism-based", "settings": "in vivo, 336 h, dose 5-15 mg/kg, time 14 day"}, "HCT-116 [20]": {"test_system": "HCT-116", "assay": "Induction of autophagic flux in human HCT-116 cells assessed as increase in LC3 protein expression preincubated with chloroquine for 1 hr followed by compound addition and measured after 24 hrs by Western blot analysis", "assay_type": "functional, cell-based"}, "[21]": {"assay": "Cmax in Sprague-Dawley rat at 10 mg/kg, ip measured for 240 mins by HPLC-MS/MS analysis", "assay_type": "ADME, organism-based", "parameters": "time 240 min, dose 10 mg/kg, route ip", "settings": "in vivo"}, "RAW264.7": {"test_system": "RAW264.7", "assay": "Inhibition of LPS-induced NFkappaB activation in mouse RAW264.7 cells assessed as inhibition of p65 phosphorylation preincubated for 24 hrs followed by LPS stimulation for 3 hrs by Western blot analysis", "assay_type": "cell-based", "settings": "dose 1-10 µM, time 27.0 hrs"}, "Cell membrane": {"test_system": "Cell membrane", "assay": "Disruption of mitochondrial membrane potential in human HT-29 cells at upto 10 uM measured after 24 hrs by JC-1 staining based fluorescence microscopy", "assay_type": "subcellular"}, "HCT-116 [22]": {"test_system": "HCT-116", "assay": "Induction of autophagic flux in human HCT-116 cells assessed as increase in LC3 protein expression preincubated with 3-methyladenine for 1 hr followed by compound addition and measured after 24 hrs by Western blot analysis", "assay_type": "functional, cell-based"}, "HCT-116 [23]": {"test_system": "HCT-116", "assay": "Induction of apoptosis in human HCT-116 cells assessed as viable cells at 5 uM incubated for 24 hrs by Annexin V-FITC/PI staining based flow cytometric analysis (reference value: 74.3 %)", "assay_type": "functional", "settings": "read-out: Activity"}, "HCT-116 [24]": {"test_system": "HCT-116", "assay": "Induction of apoptosis in human HCT-116 cells assessed as late apoptotic cells at 0.25 uM incubated for 24 hrs by Annexin V-FITC/PI staining based flow cytometric analysis (reference value: 2.9 %)", "assay_type": "functional"}, "HT-29 [25]": {"test_system": "HT-29", "assay": "Induction of cell cycle arrest in human HT-29 cells assessed as accumulation of cells at G0/G1 phase at 5 uM by RNase/PI staining based flow cytometry analysis (reference value: 50.73 %)", "assay_type": "functional"}, "HCT-116 [26]": {"test_system": "HCT-116", "assay": "Induction of apoptosis in human HCT-116 cells assessed as early apoptotic cells at 0.25 uM incubated for 24 hrs by Annexin V-FITC/PI staining based flow cytometric analysis (reference value: 7.22 %)", "assay_type": "functional"}, "Mus musculus": {"test_system": "Mus musculus", "assay": "In vivo inhibition of NFkappaB activation in LPS-induced BALB/c mouse model of endotoxin shock assessed as inhibition of TNF-alpha mRNA expression in liver at 5 mg/kg, ip pretreated for 4 hrs followed by LPS stimulation for 1 hr by RT-PCR analysis", "assay_type": "functional, organism-based", "settings": "time 5.0 hrs"}, "[27]": {"assay": "Toxicity in athymic nude BALB/c mouse xenografted with human HT-29 cells assessed as reduction in body weight at 5 to 15 mg/kg, ip administered every other day and measured every other day for 16 days", "assay_type": "organism-based", "settings": "in vivo, 384 h, dose 5-15 mg/kg, time 16 day"}},
  "note": "Activity calls are given as the source filed them. No cut-off for these calls is given here.",
  "data": [
    {"smiles": "C[C@@H]1CC[C@H]2[C@H](C(=O)c3c(O)c([C@@]4(O)CC[C@@H](O)[C@H]5O[C@H]54)cn(O)c3=O)[C@H](C)C=C[C@@H]2C1", "values": [
      {"measurement": "Activity", "setting": "HT-29 [1]", "result": 17.2, "unit": "%"},
      {"measurement": "Activity", "setting": "HCT-116 [2]", "result": 20.12, "unit": "%"},
      {"measurement": "Activity", "setting": "[3]", "result": "Non-Toxic"},
      {"measurement": "Activity", "setting": "[4]", "result": "Non-Toxic"},
      {"measurement": "Activity", "setting": "HT-29 [5]", "result": "Dose-Dependent Effect"},
      {"measurement": "viability at 5 µM", "setting": "HT-29 [6]", "result": 49.5, "unit": "%"},
      {"measurement": "Activity", "setting": "HT-29 [7]", "result": "Active"},
      {"measurement": "Activity", "setting": "HT-29 [8]", "result": "inactive"},
      {"measurement": "Activity", "setting": "HT-29 [9]", "result": "Active"},
      {"measurement": "Activity", "setting": "HT-29 [10]", "result": "Active"},
      {"measurement": "Activity", "setting": "HCT-116 [11]", "result": "Dose-Dependent Effect"},
      {"measurement": "viability at 10 µM", "setting": "HT-29 [12]", "result": 36.8, "unit": "%"},
      {"measurement": "Activity", "setting": "[13]", "result": "Non-Toxic"},
      {"measurement": "Activity", "setting": "HCT-116 [14]", "result": "Active"},
      {"measurement": "Activity", "setting": "HT-29 [15]", "result": "Active"},
      {"measurement": "Activity", "setting": "HT-29 [16]", "result": "Active"},
      {"measurement": "Activity", "setting": "HT-29 [17]", "result": 1.4, "unit": "%"},
      {"measurement": "inhibition", "setting": "[18]", "result": "Dose-Dependent Effect"},
      {"measurement": "Activity", "setting": "[19]", "result": "Non-Toxic"},
      {"measurement": "Activity", "setting": "HCT-116 [20]", "result": "Active"},
      {"measurement": "Cmax", "setting": "[21]", "result": 4590, "unit": "ng/mL"},
      {"measurement": "inhibition", "setting": "RAW264.7", "result": "Dose-Dependent Effect"},
      {"measurement": "Activity", "setting": "Cell membrane", "result": "Active"},
      {"measurement": "Activity", "setting": "HCT-116 [22]", "result": "Active"},
      {"measurement": "viability at 5 µM", "setting": "HCT-116 [23]", "result": 15.6, "unit": "%"},
      {"measurement": "Activity", "setting": "HCT-116 [24]", "result": 28.1, "unit": "%"},
      {"measurement": "Activity", "setting": "HT-29 [25]", "result": 67.37, "unit": "%"},
      {"measurement": "Activity", "setting": "HCT-116 [26]", "result": 8.93, "unit": "%"},
      {"measurement": "inhibition", "setting": "Mus musculus", "result": "Active"},
      {"measurement": "Activity", "setting": "[27]", "result": "Non-Toxic"}
    ]}
  ]
}
